Reference: patent US20120142682A1, “ANT[…] INHIBITING BACTERIAL MONO-ADP-RIBOSYLT[…]” (UNIVERSITY OF GUELPH, priority 2010, published 2012)
Where two headings read alike, the source gives them in different places.

Assays:
[1] = test system: ExoA intoxicated C38 cells; format: cell-based, Human
[2] = test system: Saccharomyces cerevisiae cells expressing the catalytic domain of P. aeruginosa ExoA (ExoAc); assay: Yeast-based compound screen; format: cell-based; conditions: compound 50 μM; for Protection in Yeast: w303 strain, growth restored
[3] = target: WT ExoAc (Pseudomonas aeruginosa, UniProt P11439); assay: biochemical; format: binding, P. aeruginosa
[4] = target: cholix toxin (Vibrio cholerae, UniProt Q5EK40); assay: biochemical; format: biochemical; conditions: for IC50: read-out: IC50; for Ki: read-out: Ki
[5] = test system: C38 cells in the presence of 650 ng/mL of ExoA; assay: Determination of half-maximal effective concentration (EC50) in C38 cells; format: cell-based, Human; conditions: 96 h
Description: Cell viability was determined using the same method as the cytoprotection assay. The EC50 values were extrapolated from each corresponding line-of-best-fit (Sigmoidal function in Origin 6.1), and the average values reported±the standard deviation.

[6] = read-out: Kd, second (lower affinity) binding constant (converted)
[7] = 650 ng/ml ExoA (10-times LD50), NAP and V30 with 0.5% DMSO

Chain of WT ExoAc (P11439 430-638 limits assumed): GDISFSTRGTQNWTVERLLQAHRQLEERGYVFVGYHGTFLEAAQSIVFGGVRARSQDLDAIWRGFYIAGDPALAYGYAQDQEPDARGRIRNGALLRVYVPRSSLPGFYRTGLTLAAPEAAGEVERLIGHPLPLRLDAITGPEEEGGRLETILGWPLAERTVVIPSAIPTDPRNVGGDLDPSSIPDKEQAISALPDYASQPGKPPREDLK
Chain of cholix toxin (Q5EK40 33-666 limits assumed): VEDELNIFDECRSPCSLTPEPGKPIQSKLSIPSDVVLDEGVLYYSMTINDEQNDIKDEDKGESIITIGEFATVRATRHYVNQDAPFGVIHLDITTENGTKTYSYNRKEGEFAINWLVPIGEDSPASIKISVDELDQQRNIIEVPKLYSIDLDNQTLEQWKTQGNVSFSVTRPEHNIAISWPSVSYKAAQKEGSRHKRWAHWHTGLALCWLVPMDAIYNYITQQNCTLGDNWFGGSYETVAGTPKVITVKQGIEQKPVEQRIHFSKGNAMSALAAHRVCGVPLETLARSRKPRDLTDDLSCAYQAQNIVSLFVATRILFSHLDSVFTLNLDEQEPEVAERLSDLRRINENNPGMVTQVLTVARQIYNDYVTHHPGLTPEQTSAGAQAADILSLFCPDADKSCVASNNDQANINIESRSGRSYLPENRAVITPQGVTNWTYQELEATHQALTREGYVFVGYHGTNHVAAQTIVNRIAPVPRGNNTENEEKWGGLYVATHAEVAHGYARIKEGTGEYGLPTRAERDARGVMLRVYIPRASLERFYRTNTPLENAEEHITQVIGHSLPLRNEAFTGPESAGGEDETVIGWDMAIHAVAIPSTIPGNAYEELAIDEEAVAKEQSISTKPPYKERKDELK

SMILES	protection of C38 cells against ExoA (in words) [1]	Protection in Yeast [2]	also measured
CC1CCCCN1c1nc2c(c(=O)[nH]c(=O)n2C)n1Cc1ccccc1 (stereo not shown) [Compound V29]	Weak protection	+ (5-25% (+))	protection in yeast against ExoAc (in words) [2]: weak protection
Cn1c(=O)c2[nH]c(CNCc3ccccc3Cl)nc2n(C)c1=O [Compound V17]	moderate activity	− (Compounds showing less than 5% growth were scored (−))	
O=C(CC1C(=O)NCCN1C(=O)CN1CCN(CCO)CC1)Nc1ccccc1 (stereo not shown) [Compound V20]		− (Compounds showing less than 5% growth were scored (−))	
CCc1ccc2ncc(C(=O)O)c(O)c2c1 [Compound V27]		− (Compounds showing less than 5% growth were scored (−))	
COC(=O)c1[nH]c(C)c(C(=O)C2=C(O)C(=O)N(CCCN3CCOCC3)C2c2ccccn2)c1C (stereo not shown) [Compound V21]	Weak protection	− (Compounds showing less than 5% growth were scored (−))	
O=c1[nH]c2ccccc2c2ccccc12 [PJ97A, reference compound]	strong protection		Kd ([3]; read-out: Kd): 393 ± 64 nM; LD50 of ExoA in the presence of compound [1]: > 750 ng/mL; increase of the LD50 of ExoA [1]: ~12 fold; IC50 [4]: 4670 ± 175 nM; Ki [4]: 610 ± 175 nM
O=C1NC(=O)c2cccc3cccc1c23 [NAP, 1,8-naphthalimide, reference compound]	excellent protection	++++ (Compounds found to restore growth to 50-75% (++++))	Kd [3]: 950 ± 30 nM; EC50 ([5]; Homo sapiens): 3800 ± 900 nM
O=C1NN=C(CN2CCOCC2)c2c[nH]c3cccc1c23 [Compound P1]		− (Compounds showing less than 5% growth were scored (−))	difference in affinity between the two binding sites [3]: ~50 fold; Kd ([3]; read-out: Kd): 10 nM; Kd [3, 6]: 650 nM; protection of C38 cells from lethal action of high dose ExoA (morphology) [1]: completely protected; EC50 [5, 7]: 2900 ± 800 nM; Ki [4]: 22 ± 4 nM
Brc1cccc(CNc2nc3ccccc3n2CCN2CCOCC2)c1 [Compound V26]	Weak protection	− (Compounds showing less than 5% growth were scored (−))	
CCN(CC)CCn1c(NCc2nc3ccccc3n2Cc2ccccc2)nc2ccccc21 [Compound V3]		− (Compounds showing less than 5% growth were scored (−))	
Nc1ccc2c3c(cccc13)C(=O)NC2=O [Compound 4-NAP, reference compound]		++ (25-50% (++))	
CCOC(=O)c1[nH]c(C)c(C(=O)C2=C(O)C(=O)N(CCCN3CCOCC3)C2c2cccc(F)c2)c1C (stereo not shown) [Compound V25]	Weak protection	− (Compounds showing less than 5% growth were scored (−))	
O=C(Nc1c2ccccc2nc2ccccc12)c1ccc([N+](=O)[O-])cc1 [Compound V7]		toxic (any compound that reduced cell viability to less than 30%)	
CN1CCN(c2c(N)c(=O)oc3ccccc23)CC1 [Compound V2]		− (Compounds showing less than 5% growth were scored (−))	
CN(C)Cc1nc2cccc3c2n1CCNC3=O [Compound P4]		− (Compounds showing less than 5% growth were scored (−))	Kd ([3]; read-out: Kd): 1380 ± 30 nM; EC50 [5, 7]: 12600 ± 3300 nM; IC50 [4]: 960 nM; Ki [4]: 132 ± 7 nM
O=C1NCC2c3cc(S(=O)(=O)O)ccc3Oc3cccc1c32 (stereo not shown) [Compound P8]	modest	− (Compounds showing less than 5% growth were scored (−))	difference in affinity between the two binding sites [3]: ~50 fold; Kd ([3]; read-out: Kd): 160 nM; Kd [3, 6]: 5210 nM; IC50 [4]: 1040 ± 136 nM; Ki [4]: 136 ± 3 nM
O=C(C1CCCN(Cc2c[nH]c3ccccc23)C1)N1CCCCCC1 (stereo not shown) [Compound V13]		− (Compounds showing less than 5% growth were scored (−))	
Nc1c(C(=O)Nc2ccc(S(N)(=O)=O)cc2)sc2nc3c(cc12)CCCC3 [Compound V6]		− (Compounds showing less than 5% growth were scored (−))	
Cn1c(=O)c2[nH]c(CN3CCc4ccccc4C3)nc2n(C)c1=O [Compound V12]	moderate activity	− (Compounds showing less than 5% growth were scored (−))	LD50 of ExoA in the presence of compound [1]: 228 ± 12 ng/mL; increase of the LD50 of ExoA [1]: ~3 fold
